Experimental data taken from publication PMC8523698, “Preclinical characterization of an intravenous coronavirus 3CL protease inhibitor for the potential treatment of COVID19” (Nature Communications, 2021).
Where “and” joins values, the source holds several entries; their conditions need not be identical. Equal entries are not always repeated. Where two headings read alike, the source gives them in different places.

Legend:
[1] = test system: Human Chymotrypsin; assay: Mammalian protease panel; type: biochemical
[2] = biological target: Human Caspase 2 (Homo sapiens, UniProt P42575); assay: Mammalian protease panel; type: biochemical
Sequence of Human Caspase 2 (P42575 170-325 limits assumed): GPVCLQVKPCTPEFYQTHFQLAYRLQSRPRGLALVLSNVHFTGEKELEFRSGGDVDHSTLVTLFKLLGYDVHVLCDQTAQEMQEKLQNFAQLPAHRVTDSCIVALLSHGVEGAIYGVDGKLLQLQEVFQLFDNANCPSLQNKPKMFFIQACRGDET
Sequence of Human Caspase 2 (P42575 348-452 limits assumed): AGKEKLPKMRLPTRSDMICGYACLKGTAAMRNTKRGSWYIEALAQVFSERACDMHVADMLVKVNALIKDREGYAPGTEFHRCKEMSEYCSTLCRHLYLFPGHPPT

[3] = test system: SARS-CoV-2 Belgium/GHB-03021/2020 strain; assay: microbe, parasite or virus in culture; type: cell-based; settings: Severe acute respiratory syndrome coronavirus 2
[4] = test system: SARS-CoV-2 USA-WA1/2020; assay: Ad5-hACE2 SARS-CoV-2 mouse infection model; type: in vivo, BALB/c mice; settings: 100 mg/kg BID from day 0; lungs day 3; individual mice
[5] = biological target: T1, OCT1 (Homo sapiens, UniProt O15245); assay: Transporter inhibition using transfected HEK293 cells; type: in vitro ADME; settings: IC50, [14C]Metformin (10 µM)
T1 construct: expressed in transfected cells; host or cells: HEK293
T1 sequence (O15245 1-554): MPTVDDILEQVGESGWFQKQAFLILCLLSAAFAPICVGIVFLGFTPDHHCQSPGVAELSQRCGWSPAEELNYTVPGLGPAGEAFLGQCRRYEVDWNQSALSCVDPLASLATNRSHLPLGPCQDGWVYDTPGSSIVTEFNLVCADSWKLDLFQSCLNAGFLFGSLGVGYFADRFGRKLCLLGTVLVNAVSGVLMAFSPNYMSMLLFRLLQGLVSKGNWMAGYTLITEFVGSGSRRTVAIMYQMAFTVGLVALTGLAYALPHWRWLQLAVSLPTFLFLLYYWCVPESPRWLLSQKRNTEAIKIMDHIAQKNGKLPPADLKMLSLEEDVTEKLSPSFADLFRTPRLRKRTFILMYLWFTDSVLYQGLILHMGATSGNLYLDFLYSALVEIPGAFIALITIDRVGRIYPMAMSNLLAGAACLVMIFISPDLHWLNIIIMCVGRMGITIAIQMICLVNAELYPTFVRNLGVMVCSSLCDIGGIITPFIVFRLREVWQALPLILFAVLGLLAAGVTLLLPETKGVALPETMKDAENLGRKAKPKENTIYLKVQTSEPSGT

[6] = test system: SARS-CoV-2; settings: cited from earlier work
[7] = Plasma protein binding by equilibrium dialysis; settings: for fraction unbound at 6 h, 5 uM / fraction unbound at 6 h: human, plasma
[8] = Plasma protein binding by equilibrium dialysis; settings: for fraction unbound at 6 h, 5 uM / fraction unbound at 6 h: dog, plasma
[9] = test system: CYP3A4/5; assay: Reversible CYP inhibition in human liver microsomes

`COc1cccc2[nH]c(C(=O)N[C@@H](CC(C)C)C(=O)N[C@@H](C[C@@H]3CCNC3=O)C(=O)CO)cc12` [PF-00835231] showed an IC50 [1] greater than 100000 nM, an IC50 [2] greater than 33000 nM and an EC90 [3] of 1600 nM. The Lung viral titers [4] was 160 IU/mL and 240 IU/mL and 110 IU/mL and 3500 IU/mL and 1600 IU/mL and 1100 IU/mL, the IC50 [5] was 36300 nM and the IC50 ([5]; human, HEK293 cells stably transfected with OCT1, pH 7.4, probe [14C]-metformin (10 µM)) was greater than 20000 nM. The EC50 ([6]; P-gp inhibitor 0 uM) was 193 nM, the EC50 ([6]; P-gp inhibitor 1 uM) was 178 nM and the EC90 ([6]; human lung carcinoma cells) was 440 nM. The Individual fraction unbound ([7]; human plasma, 5.0 uM, replicates Day 1-3) was 0.474 and 0.429 and 0.385 and 0.458 and 0.463 and 0.507 and 0.437 and 0.428 and 0.477 and 0.486, the fraction unbound at 6 h, 5 uM ([7]; pH 7.4, Fraction unbound, Geomean, human plasma, 5.0 uM, n 12) was 0.449 and the fraction unbound at 6 h, 5 uM ([7]; pH 7.4, Individual fraction unbound, human plasma, 5.0 uM, replicates Day 1-3) was 0.423. For the same compound, the fraction unbound at 6 h ([7]; pH 7.4, Measured plasma fu / Human plasma fu, human plasma) was 0.449, the fraction unbound at 6 h ([7]; pH 7.4, Unbound fraction fu (%CV), human plasma) was 0.449 and the fraction unbound at 6 h, 5 uM ([7]; pH 7.4, fraction unbound Geomean, human plasma, 5.0 uM, n=12) was 0.449. It also gave a fraction unbound at 6 h ([7]; pH 7.4, fu, fu,plasma, Simcyp input parameter (User), substrate) of 0.449, a fraction unbound at 6 h, 5 uM ([8]; Beagle, pH 7.4, Fraction unbound, Geomean, Dog plasma, 5.0 uM, n 12) of 0.416 and a fraction unbound at 6 h, 5 uM ([8]; Beagle, pH 7.4, Individual fraction unbound, Dog Beagle plasma, 5.0 uM, replicates Day 1-3) of 0.401. For the same compound, the Individual fraction unbound ([8]; Dog Beagle plasma, 5.0 uM, replicates Day 1-3) was 0.386 and 0.435 and 0.45 and 0.406 and 0.488 and 0.451 and 0.403 and 0.342 and 0.444 and 0.382 and 0.419, the fraction unbound at 6 h ([8]; pH 7.4, Plasma fu, Vdss input) was 0.416 and the fraction unbound at 6 h ([8]; pH 7.4, Unbound fraction fu (%CV), dog plasma) was 0.416. The fraction unbound at 6 h, 5 uM ([8]; pH 7.4, fraction unbound Geomean, dog plasma, 5.0 uM, n=12) was 0.416, the “Percent of Control Activity” value ([9]; CYP 3A4/5 (mdz), 0.214 µM, 30-Minute Preincubation) was 105.3% and the “Percent of Control Activity” value ([9]; CYP 3A4/5 (mdz), 0.979 µM, 30-Minute Preincubation) was 106.9%. The “Percent of Control Activity” value ([9]; CYP 3A4/5 (mdz), 2.09 µM, 30-Minute Preincubation) was 110.4%, the “Percent of Control Activity” value ([9]; CYP 3A4/5 (mdz), 4.48 µM, 30-Minute Preincubation) was 94.3% and the “Percent of Control Activity” value ([9]; CYP 3A4/5 (mdz), 20.5 µM, 30-Minute Preincubation) was 83.5%. The “Percent of Control Activity” value ([9]; CYP 3A4/5 (mdz), 20.5 µM, Zero-Minute Preincubation) was 117.3%, the “Percent of Control Activity” value ([9]; CYP 3A4/5 (mdz), 43.8 µM, 30-Minute Preincubation) was 84.8% and the “Percent of Control Activity” value ([9]; CYP 3A4/5 (mdz), 93.5 µM, 30-Minute Preincubation) was 72.6%. For the same compound, the “Percent of Control Activity” value ([9]; CYP 3A4/5 (mdz), 200 µM, 30-Minute Preincubation) was 50.6% and 46.7%, the “Percent of Control Activity” value ([9]; CYP 3A4/5 (mdz), 200 µM, Zero-Minute Preincubation) was 109.5% and the “Percent of Control Activity” value ([9]; CYP 3A4/5 (tst), 0.214 µM, 30-Minute Preincubation) was 110.1%. The “Percent of Control Activity” value ([9]; CYP 3A4/5 (tst), 0.214 µM, Zero-Minute Preincubation) was 116.0% and 141.9%, the “Percent of Control Activity” value ([9]; CYP 3A4/5 (tst), 0.979 µM, 30-Minute Preincubation) was 122.3% and the “Percent of Control Activity” value ([9]; CYP 3A4/5 (tst), 0.979 µM, Zero-Minute Preincubation) was 120.0% and 100.0%. The “Percent of Control Activity” value ([9]; CYP 3A4/5 (tst), 2.09 µM, 30-Minute Preincubation) was 146.9% and 144.6% and 107.9%, the “Percent of Control Activity” value ([9]; CYP 3A4/5 (tst), 2.09 µM, Zero-Minute Preincubation) was 128.1% and the “Percent of Control Activity” value ([9]; CYP 3A4/5 (tst), 4.48 µM, 30-Minute Preincubation) was 142.0% and 164.4%. The “Percent of Control Activity” value ([9]; CYP 3A4/5 (tst), 4.48 µM, Zero-Minute Preincubation) was 92.4% and 117.7% and 97.0%, the “Percent of Control Activity” value ([9]; CYP 3A4/5 (tst), 20.5 µM, 30-Minute Preincubation) was 84.0% and the “Percent of Control Activity” value ([9]; CYP 3A4/5 (tst), 20.5 µM, Zero-Minute Preincubation) was 71.0% and 70.3%.
